Reference: patent US12258367B2, “Glucoside derivative that acts as SGLT1 inhibitor and application thereof” (MEDSHINE DISCOVERY INC., priority 2019, dated 2025)
Marks after values point to notes of the source that are not given here.

What was measured:
Human-SGLT1 = target: T1, Human-SGLT1 (Homo sapiens, UniProt P13866); assay: SGLT1 glucose transport assay ([14C]-methyl α-D-glucopyranoside uptake); format: cell-based; conditions: cells stably expressing Human-SGLT1, 37° C. for 2 hours
T1 sequence (P13866 1-664): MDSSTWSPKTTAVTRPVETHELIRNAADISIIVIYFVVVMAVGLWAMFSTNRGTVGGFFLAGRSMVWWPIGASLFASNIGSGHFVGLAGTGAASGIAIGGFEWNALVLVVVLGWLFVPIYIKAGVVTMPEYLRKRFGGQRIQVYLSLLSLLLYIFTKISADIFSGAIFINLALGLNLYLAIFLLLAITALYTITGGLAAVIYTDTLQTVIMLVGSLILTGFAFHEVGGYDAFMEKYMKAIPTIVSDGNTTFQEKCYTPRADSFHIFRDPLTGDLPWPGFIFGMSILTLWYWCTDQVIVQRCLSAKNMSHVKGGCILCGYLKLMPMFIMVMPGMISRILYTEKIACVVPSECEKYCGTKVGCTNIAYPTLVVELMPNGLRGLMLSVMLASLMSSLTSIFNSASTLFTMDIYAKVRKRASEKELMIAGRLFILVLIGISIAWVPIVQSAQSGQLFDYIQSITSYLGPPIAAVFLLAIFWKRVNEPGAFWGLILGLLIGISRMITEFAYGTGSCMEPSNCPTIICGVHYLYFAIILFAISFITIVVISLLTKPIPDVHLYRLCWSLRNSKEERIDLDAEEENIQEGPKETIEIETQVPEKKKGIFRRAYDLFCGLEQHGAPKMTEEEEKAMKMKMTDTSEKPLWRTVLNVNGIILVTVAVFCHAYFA
Experimental: The effect of the compounds on the glucose transport activity of the SGLT1 transporter was detected by measuring the amount of [^14C]-labeled glucose entering cells highly expressing Human-SGLT1.
The cells stably expressing Human-SGLT1 used in the assay were constructed by Shanghai WuXi AppTec. The SGLT1 cells were plated on a Cytostar-T (PerkinElmer) 96-well cell culture plate and cultured at 5% CO2, 37° C. overnight.

Human-SGLT2 = target: T2, Human-SGLT2 (Homo sapiens, UniProt P31639); assay: SGLT2 glucose transport assay ([14C]-methyl α-D-glucopyranoside uptake); format: cell-based; conditions: cells stably expressing Human-SGLT2, 37° C. for 2 hours
T2 sequence (P31639 1-672): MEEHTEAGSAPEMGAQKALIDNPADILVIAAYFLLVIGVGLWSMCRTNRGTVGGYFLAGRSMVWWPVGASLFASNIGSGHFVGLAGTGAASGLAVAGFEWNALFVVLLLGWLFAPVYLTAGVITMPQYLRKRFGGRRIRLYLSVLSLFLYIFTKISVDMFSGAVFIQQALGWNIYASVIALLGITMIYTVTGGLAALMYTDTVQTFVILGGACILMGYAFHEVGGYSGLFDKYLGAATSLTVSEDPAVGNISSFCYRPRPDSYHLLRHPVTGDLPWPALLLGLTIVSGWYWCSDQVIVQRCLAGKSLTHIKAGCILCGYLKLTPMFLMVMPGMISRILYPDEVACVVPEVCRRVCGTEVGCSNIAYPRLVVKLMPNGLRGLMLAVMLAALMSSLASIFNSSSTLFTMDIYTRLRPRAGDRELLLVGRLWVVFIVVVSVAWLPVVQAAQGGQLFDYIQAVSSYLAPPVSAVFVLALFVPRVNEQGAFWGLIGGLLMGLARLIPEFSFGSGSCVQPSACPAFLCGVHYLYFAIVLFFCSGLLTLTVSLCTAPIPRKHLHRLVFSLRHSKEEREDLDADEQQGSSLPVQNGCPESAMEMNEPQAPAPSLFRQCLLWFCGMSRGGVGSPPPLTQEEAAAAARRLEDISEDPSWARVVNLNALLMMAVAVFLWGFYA
Experimental: The effect of the compound on the glucose transport activity of the SGLT2 transporter was detected by measuring the amount of [^14C]-labeled glucose entering cells highly expressing Human-SGLT2.
The cells stably expressing Human-SGLT2 used in the assay were constructed by Shanghai WuXi AppTec. The SGLT2 cells were plated on a 96-well cell culture plate (Greiner) and cultured at 5% CO2, 37° C. overnight.

[1] = In vivo DMPK study in rats; conditions: male SD rats; for clearance / half-life / Vd: iv, 1 mg/kg intravenously; for clearance: read-out: Cl (clearance rate); for half-life: read-out: T1/2 (half-life) (converted); for Vd: read-out: VdSS (distribution volume)
Description: Purpose of the assay: Male SD rats were used as test animals to determine the blood concentration of the compound after a single administration and evaluate the pharmacokinetic behavior.
Procedure of the assay: 4 healthy adult male SD rats were selected, 2 rats in the intravenous injection group, and 2 rats in the oral group. The test compound was mixed with an appropriate amount of vehicle (10% NMP/10% solutol/80% water) for the intravenous injection group, vortexed, and sonicated to prepare a clear solution of 0.5 mg/mL. The clear solution was filtered by a microporous membrane for use. The vehicle for the oral group was 10% NMP/10% solutol/80% water. The test compound was mixed with the vehicle, and then the mixture was vortexed and sonicated to prepare a clear solution of 1 mg/mL. Rats were administered 1 mg/kg intravenously or 10 mg/kg orally, and then whole blood was collected for a certain period. Plasma was prepared. The drug concentration was analyzed by LC-MS/MS method, and the pharmacokinetic parameters were calculated by Phoenix WinNonlin software (Pharsight, USA).

SD rats = assay: In vivo efficacy study of oral glucose tolerance in rats (OGTT); conditions: 5 mg/kg single gavage, then 50% glucose 2 g/kg, vehicle control 1063.4
Experimental: After the animals were fasted for 6 hours, they were administered WXD003 or vehicle according to Table 6, and then immediately administered 50% glucose solution (2 g/kg, 4 ml/kg).
The time for sugar administration was recorded as 0 point. The blood glucose of the animals was detected at 0 minute before sugar administration, and at 15, 30, 60, 90, 120 minutes after sugar administration, respectively. A curve of glucose tolerance was drawn based on the data of time versus blood glucose, and the area under curve (AUC) was calculated.
All values were expressed as average values. Statistical analysis was evaluated using Graphpad Prism 6 one-way analysis of variance and Tukey's multiple comparison test. A p value of less than 0.05 was considered statistically significant.

C57BL/6J male mice [2] = assay: In vivo efficacy study in diabetic mouse model induced by STZ combined with high-sugar and high-fat diet; set-up: species or system C57BL/6J mice; conditions: for Glycosylated hemoglobin after 6 hours of fasting / Blood glucose after 6 hours of fasting: HFHS
Description: 7 week-old C57BL/6J male mice, purchased from Jiangsu GemPharmatech Co., Ltd.
1) After the animals adapted to the environment, all mice were divided into two groups according to body weight, fed according to the scheme in Table 8, and injected with vehicle and streptozotocin (STZ) for modeling;
2) According to the random blood glucose test results of the model group, mice with random blood glucose greater than 11 mmol/L were enrolled in the group to continue the administration assay;
3) The mice in the model group that meet the criteria for enrollment were divided into 3 groups, 5 in the normal group, and 10 in each model administration group. The mice were administered according to the administration schedule in Table 9;
4) After starting the administration, the level of change in animal weight was monitored every day, and the blood glucose and glycosylated hemoglobin of the mice in each group after 6 hours of fasting were detected after 4 weeks and 7 weeks of administration, respectively;
5) Data analysis: All values were expressed as average values. Statistical analysis was evaluated using Graphpad Prism 6 one-way analysis of variance and Tukey's multiple comparison test, and a p value of less than 0.05 was considered statistically significant.

C57BL/6J male mice [3] = assay: In vivo efficacy study in obese mouse model induced by HFHS diet; set-up: species or system C57BL/6J mice; conditions: for Blood glucose after 6 hours of fasting / Blood glucose 1 hour after meal: after 3 weeks of administration, HFHS; for Blood glucose after 6 hours of fasting: HFHS + Vehicle 10.5; for Blood glucose 1 hour after meal: HFHS + Vehicle 11.5
Description: 5 week-old C57BL/6J male mice, purchased from Jiangsu GemPharmatech Co., Ltd.
1) After the animals adapted to the environment, they were fed a HFHS diet (Research Diet, HFHS, D12451) for 20 weeks, and then mice weighing more than 40 grams were selected for weight loss assay.
2) Animals whose body weight met the standard were adapted for vehicle administration, and then all mice were divided into 5 groups according to body weight for weight loss assay. The effect of the compound in reducing the body weight of animals was detected.
3) After starting the administration, the level of change in animal weight was monitored every day, and after 3 weeks of administration, the blood glucose levels of mice in each group after 6 hours of fasting and 1 hour after meal were detected, respectively;
4) Data analysis: All values were expressed as average values. Statistical analysis was evaluated using Graphpad Prism 6 one-way analysis of variance and Tukey's multiple comparison test, and a p value of less than 0.05 was considered statistically significant.

Compound | IC50 (Human-SGLT1) | IC50 (Human-SGLT2) | clearance ([1]; rat, plasma) | half-life ([1]; rat, plasma) | Vd ([1]; rat, plasma) | also measured
CS[C@H]1O[C@@H](c2ccc(F)c(Cc3ccc(OC4CCN(C(=O)C[C@H](N)Cc5cc(F)c(F)cc5F)CC4)cc3)c2)[C@H](O)[C@@H](O)[C@@H]1O [WXD006] | 35 nM | 1.4 nM |  |  |  | 
CCc1ccc([C@@H]2O[C@H](SC)[C@@H](O)[C@H](O)[C@H]2O)cc1Cc1ccc(OC2CCN(C(=O)C[C@H](N)Cc3cc(F)c(F)cc3F)CC2)cc1 [WXD003] | 0.7 nM | 0.6 nM | 32.5 mL/min/kg | 2.3 h | 1.5 L/kg | Oral DNAUC (AUCPO/Dose) ([1]; 10 mg/kg orally): 2 nM · h/mpk; bioavailability ([1]; rat, plasma, oral, 10 mg/kg orally vs 1 mg/kg intravenously, read-out: F % (oral bioavailability)): 0.2%; Cmax ([1]; rat, po, 10 mg/kg orally, plasma): 16.5 nM; OGTT blood glucose level AUC0-2 hours (SD rats): 624.2**** mmol/L × min; Glycosylated hemoglobin after 6 hours of fasting (C57BL/6J male mice [2]; after 4 weeks of administration, 3 mg/kg orally once a day, HFHS + Vehicle 4.9): 4.5*** %; Blood glucose after 6 hours of fasting (C57BL/6J male mice [2]; after 4 weeks of administration, 3 mg/kg orally once a day, HFHS + Vehicle 13.7): 10.3*** mmol/L; weight gain of animals (C57BL/6J male mice [2]; after 4 weeks of administration, FIG. 3): can effectively control the weight gain of animals; Glycosylated hemoglobin after 6 hours of fasting (C57BL/6J male mice [2]; after 7 weeks of administration, 6 mg/kg (week 4 to 7) orally once a day, HFHS + Vehicle 5.2): 4.4**** %; Blood glucose after 6 hours of fasting (C57BL/6J male mice [2]; after 7 weeks of administration, 6 mg/kg (week 4 to 7) orally once a day, HFHS + Vehicle 15.3): 9.6**** mmol/L; weight gain of animals (C57BL/6J male mice [2]; after 7 weeks of administration, FIG. 6): can effectively control the weight gain of animals; Blood glucose after 6 hours of fasting (C57BL/6J male mice [3]; 0.3 mg/kg orally once a day): 9.7 mmol/L; Blood glucose 1 hour after meal (C57BL/6J male mice [3]; 0.3 mg/kg orally once a day): 10.5 mmol/L; Blood glucose after 6 hours of fasting (C57BL/6J male mice [3]; 1 mg/kg orally once a day): 9.6 mmol/L; Blood glucose 1 hour after meal (C57BL/6J male mice [3]; 1 mg/kg orally once a day): 10.2 mmol/L; Blood glucose after 6 hours of fasting (C57BL/6J male mice [3]; 3 mg/kg orally once a day): 9.7 mmol/L; Blood glucose 1 hour after meal (C57BL/6J male mice [3]; 3 mg/kg orally once a day): 9.6* mmol/L; animal weight (C57BL/6J male mice [3]; after 3 weeks of administration, 0.3, 1, 3 mg/kg, FIG. 7 and FIG. 8): can significantly reduce animal weight in a dose-dependent manner
CS[C@H]1O[C@@H](c2cccc(Cc3ccc(OC4CCN(C(=O)C[C@H](N)Cc5cc(F)c(F)cc5F)CC4)cc3)c2)[C@H](O)[C@@H](O)[C@@H]1O [WXD007] | 69 nM | 5.8 nM |  |  |  | 
CS[C@H]1O[C@@H](c2ccc(C)c(Cc3ccc(OC4CCN(C(=O)C[C@H](N)Cc5cc(F)c(F)cc5F)CC4)cc3)c2)[C@H](O)[C@@H](O)[C@@H]1O [WXD004] | 0.8 nM | 0.8 nM |  |  |  | 
CS[C@H]1O[C@@H](c2ccc(C)c(Cc3ccc(CCCC(=O)NC(C)(C)C(=O)NCCN(C)C)cc3)c2)[C@H](O)[C@@H](O)[C@@H]1O [LX2761, reference compound] | 1.1 nM | 1.1 nM | 37.6 mL/min/kg | 1.9 h | 1.4 L/kg | 
CCc1ccc([C@@H]2O[C@H](SC)[C@@H](O)[C@H](O)[C@H]2O)cc1Cc1ccc(OC2CCN(C(=O)C[C@@H](Cc3cc(F)c(F)cc3F)NC)CC2)cc1 [WXD005] | 3.5 nM | 1.4 nM |  |  |  | 
